Test results reported in US9321756B2, “Azole compounds as PIM inhibitors” (priority 2011, dated 2016).
Like-named read-outs stand apart in the source and are kept apart here.

Assays:
[1] = system: Pim-1 stably transfected U2OS human osteogenic sarcoma line; assay: Pim cell assay U2OS (phospho-BAD normalized against total BAD), Pim-1 transfected; assay type: cell-based; settings: Homo sapiens
Experimental: (§1) The cell lines used in the assay were generated by the stable transfection of either Pim-1 or Pim-2 into the U2OS human osteogenic sarcoma line. The assay for determination of the Pim activity in the engineered U2OS cell lines measures levels of phospho-BAD normalized against total BAD protein levels. It was conducted as follows:
(§2) The adherent cells were dissociated from the flasks using non-enzymatic cell dissociation solution (Sigma #C5914). […] The cells were then incubated overnight at 37° C., 5% CO2.
(§3) In addition to the 10-point dosing curve of the test compound, DMSO alone was run as the high control.
(§4) This dilution in DMSO was then diluted again into cell growth medium. Aliquots (12 μL) of the compound diluted in growth medium were then transferred to the appropriate wells of the 96-well plates containing cells to a final DMSO concentration of 0.3%. The cell plates were then incubated with compound for 29 min at 37° C., 5% CO2.
(§5) The cell plates containing lysis buffer were then immediately stored at −70° C.
(§6) These prepared lysates were then assayed for phospho and total BAD according to the manufacturer's protocols (Meso Scale Diagnostics, Cat#K15103C-3 & #K15103D-3). The plates were read on the MSD Sector Imager 6000, and results were calculated according to the assay protocols ((% Phosphoprotein=((2×Phospho signal)/(Phospho signal+Total signal))×100)).

[2] = molecular target: full length recombinant Pim-2 (Homo sapiens (Human), UniProt Q9P1W9); assay: Pim enzyme assay (HTRF, phosphorylation of biotinylated-BAD (S112) peptide), Pim-2; assay type: biochemical; settings: Pim-2 enzyme assay; read-out: Pim2_IC50
Sequence of full length recombinant Pim-2 (Q9P1W9 whole entry): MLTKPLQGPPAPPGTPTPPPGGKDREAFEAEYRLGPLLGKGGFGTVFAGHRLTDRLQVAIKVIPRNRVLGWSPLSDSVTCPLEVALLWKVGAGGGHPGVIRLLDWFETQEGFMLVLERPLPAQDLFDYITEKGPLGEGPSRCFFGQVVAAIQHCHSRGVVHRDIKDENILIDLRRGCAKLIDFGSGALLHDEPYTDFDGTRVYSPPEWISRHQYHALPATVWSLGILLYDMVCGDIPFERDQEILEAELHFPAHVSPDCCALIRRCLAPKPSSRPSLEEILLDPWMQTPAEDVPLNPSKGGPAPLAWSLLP

[3] = molecular target: full length recombinant Pim-1 (Homo sapiens (Human), UniProt P11309); assay: Pim enzyme assay (HTRF, phosphorylation of biotinylated-BAD (S112) peptide), Pim-1; assay type: biochemical; settings: Pim-1 enzyme assay; read-out: Pim_1_IC50
Sequence of full length recombinant Pim-1 (P11309 whole entry): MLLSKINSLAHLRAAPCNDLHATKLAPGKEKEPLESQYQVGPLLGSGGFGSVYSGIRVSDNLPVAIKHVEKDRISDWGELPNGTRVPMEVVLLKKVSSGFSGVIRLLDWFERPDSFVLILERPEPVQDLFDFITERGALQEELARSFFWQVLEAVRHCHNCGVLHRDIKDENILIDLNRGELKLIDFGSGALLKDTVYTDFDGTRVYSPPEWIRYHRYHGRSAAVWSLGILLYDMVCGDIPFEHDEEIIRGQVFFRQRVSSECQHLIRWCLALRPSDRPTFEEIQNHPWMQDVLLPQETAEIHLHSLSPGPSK

[4] = system: Pim-2 stably transfected U2OS human osteogenic sarcoma line; assay: Pim cell assay U2OS (phospho-BAD normalized against total BAD), Pim-2 transfected; assay type: cell-based; settings: Homo sapiens; U2OS cells, Pim-2 transfected; read-out: U2OS Pim2_Cell_IC50
Experimental: as §1, §2, §3, §4, §5, §6

[5] = molecular target: full length recombinant Pim-3 (Homo sapiens (Human), UniProt Q86V86); assay: Pim enzyme assay (HTRF, phosphorylation of biotinylated-BAD (S112) peptide), Pim-3; assay type: biochemical; settings: read-out: Pim3 IC50
Summary of the method: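 IC50 values were fitted with a 4-parameter logistic model to percent-of-control HTRF signal (Eu anti-phospho-BAD S112 antibody/streptavidin-APC). Reactions used full-length Pim-3 and biotin-BAD (S112) peptide, ran 1 h 30 min at RT (22 °C) in Hepes pH 7.0 buffer with BSA and DTT, and were stopped by 3 mM EDTA.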

[6] = U2OS, read-out: U2OS Pim1_Cell_IC50
[7] = U2OS, read-out: U2OS Pim1_Cell_IC50, U2OS cells, Pim-1 transfected

SMILES	IC50 [1, 6]	IC50 [2]	IC50 [3]	IC50 [4]	IC50 ([5]; Pim-3 enzyme assay)	IC50 [1, 7]	IC50 [5]	IC50 ([1]; U2OS cells, Pim-1 transfected, read-out: U2OS Pim1_Cell_IC50)
Nc1nnc(-c2ccc3[nH]cc(-c4nccc(N5CCC[C@@H](O)C5)n4)c3c2)o1 (stereo in doubt) [Example 104, 1-(2-(5-(5-amino-1,3,4-oxadiazol-2-yl)-1H-indol-3-yl)-4-pyrimidinyl)-3-piperidinol]	2130 nM	7.73 nM	11.4 nM	15200 nM	5.1 nM			
C[C@H]1CCCN(c2ccnc(-c3c[nH]c4ccc(-c5nnc(N)o5)cc34)n2)C1 (stereo in doubt) [Example 105, 5-(3-(4-(3-methyl-1-piperidinyl)-2-pyrimidinyl)-1H-indol-5-yl)-1,3,4-oxadiazol-2-amine]	104 nM	4.81 nM	5.5 nM	920 nM	1.78 nM			
CN(C)[C@H]1CCCN(c2ccnc(-c3c[nH]c4ccc(-c5nnc(N)o5)cc34)n2)C1 (stereo in doubt) [Example 107, 1-(2-(5-(5-amino-1,3,4-oxadiazol-2-yl)-1H-indol-3-yl)-4-pyrimidinyl)-N,N-dimethyl-3-piperidinamine]	3860 nM	3.24 nM	5.98 nM	> 31600 nM	3.74 nM			
C[C@H]1CCCCN1c1cccc(-c2c[nH]c3ccc(-c4nnc(N)s4)cc23)n1 (stereo in doubt) [Example 167, 5-(3-(6-(2-methyl-1-piperidinyl)-2-pyridinyl)-1H-indol-5-yl)-1,3,4-thiadiazol-2-amine]	421 nM	64.4 nM	19 nM	25000 nM	5.87 nM			
CC1CCCCN1c1cncc(-c2c[nH]c3ccc(-c4nnc(N)o4)cc23)n1 (centres unmarked) [Example 1, 5-(3-(6-(2-methylpiperidin-1-yl)pyrazin-2-yl)-1H-indol-5-yl)-1,3,4-oxadiazol-2-amine]		2.06 nM	0.714 nM	435 nM	1.06 nM	11.9 nM		
Nc1nnc(-c2ccc3[nH]cc(-c4cncc(N5CCC(F)(F)CC5)n4)c3c2)o1 [Example 2, 5-(3-(6-(4,4-difluoropiperidin-1-yl)pyrazin-2-yl)-1H-indol-5-yl)-1,3,4-oxadiazol-2-amine]			1.94 nM	419 nM	1.08 nM	29.4 nM		
CC1CCCCN1c1ccnc(-c2c[nH]c3ccc(-c4nnc(N)o4)cc23)n1 (centres unmarked) [Example 3, 5-(3-(4-(2-methylpiperidin-1-yl)pyrimidin-2-yl)-1H-indol-5-yl)-1,3,4-oxadiazol-2-amine]	54.6 nM	2.19 nM	5.95 nM	235 nM	0.974 nM			
Nc1nnc(-c2ccc3[nH]cc(-c4cccc(N5CCOCC5)n4)c3c2)s1 [Example 24, 5-(3-(6-morpholinopyridin-2-yl)-1H-indol-5-yl)-1,3,4-thiadiazol-2-amine]		58.7 nM		7570 nM	5.59 nM	232 nM		
Oc1nnc(-c2ccc3[nH]cc(-c4cccc(N5CCOCC5)n4)c3c2)s1 [Example 29, 5-(3-(6-morpholinopyridin-2-yl)-1H-indol-5-yl)-1,3,4-thiadiazol-2-ol]			121 nM	> 31600 nM	28.9 nM	6860 nM		
CC(C)Oc1cccc(-c2c[nH]c3ccc(-c4nnc(NC5CCCNC5)s4)cc23)n1 (centres unmarked) [Example 32, 5-(3-(6-Isopropoxypyridin-2-yl)-1H-indol-5-yl)-N-(piperidin-3-yl)-1,3,4-thiadiazol-2-amine 2,2,2-trifluoroacetate]				6850 nM		573 nM	3.46 nM	
CC(C)Oc1cccc(-c2c[nH]c3ccc(-c4nnc(N[C@@H]5CCCNC5)s4)cc23)n1 [Example 35, (R)-5-(3-(6-Isopropoxypyridin-2-yl)-1H-indol-5-yl)-N-(piperidin-3-yl)-1,3,4-thiadiazol-2-amine 2,2,2-trifluoroacetate]			9.23 nM	10900 nM		1150 nM	1.84 nM	
Nc1nnc(-c2ccc3[nH]cc(-c4nccc(-c5ccccc5F)n4)c3c2)o1 [Example 123, 5-(3-(4-(2-fluorophenyl)-2-pyrimidinyl)-1H-indol-5-yl)-1,3,4-oxadiazol-2-amine]			10.6 nM	1350 nM	4.97 nM	147 nM		
CC(C)Oc1cccc(-c2c[nH]c3ccc(-c4nnc(N)s4)cc23)n1 [Example 157, 5-(3-(6-(1-methylethoxy)-2-pyridinyl)-1H-indol-5-yl)-1,3,4-thiadiazol-2-amine]	106 nM	10.1 nM	7.77 nM	2220 nM				
Nc1nnc(-c2ccc3[nH]cc(-c4cccc(OC5CCC5)n4)c3c2)s1 [Example 161, 5-(3-(6-(cyclobutyloxy)-2-pyridinyl)-1H-indol-5-yl)-1,3,4-thiadiazol-2-amine]			10.9 nM	3480 nM	2.98 nM	205 nM		
Nc1nnc(-c2ccc3[nH]cc(-c4cccc(OC5CCCC5)n4)c3c2)s1 [Example 163, 5-(3-(6-(cyclopentyloxy)-2-pyridinyl)-1H-indol-5-yl)-1,3,4-thiadiazol-2-amine]			14.7 nM	6900 nM	4.58 nM			479 nM
Nc1nnc(-c2ccc3[nH]cc(-c4cccc(N5CCCCC5)n4)c3c2)s1 [Example 172, 5-(3-(6-(1-piperidinyl)-2-pyridinyl)-1H-indol-5-yl)-1,3,4-thiadiazol-2-amine]	414 nM	68.8 nM	40.5 nM	> 31600 nM				
Nc1nnc(-c2ccc3[nH]cc(-c4cncc(NC5CCCCC5)n4)c3c2)s1 [Example 208, 6-(5-(5-amino-1,3,4-thiadiazol-2-yl)-1H-indol-3-yl)-N-cyclohexyl-2-pyrazinamine]		18.1 nM	3.15 nM	2600 nM		56.3 nM		
CNc1nnc(-c2ccc3[nH]cc(-c4cccc(OC5CCC5)n4)c3c2)s1 [Example 232, 5-(3-(6-(cyclobutyloxy)-2-pyridinyl)-1H-indol-5-yl)-N-methyl-1,3,4-thiadiazol-2-amine]	1720 nM	104 nM	57 nM	> 31600 nM				
CNc1nnc(-c2ccc3[nH]cc(-c4csc(-n5cnc(C)c5)n4)c3c2)s1 [Example 233, N-methyl-5-(3-(2-(4-methyl-1H-imidazol-1-yl)-1,3-thiazol-4-yl)-1H-indol-5-yl)-1,3,4-thiadiazol-2-amine]			100 nM	> 31600 nM	28 nM	1400 nM		
C[C@H]1COCCN1c1nnc(-c2ccc3[nH]cc(-c4cncc(C5CC5)n4)c3c2)o1 [Example 248, 3-(6-cyclopropyl-2-pyrazinyl)-5-(5-((3S)-3-methyl-4-morpholinyl)-1,3,4-oxadiazol-2-yl)-1H-indole]		20.9 nM	13.9 nM	> 31600 nM		192 nM		
c1cc2[nH]cc(-c3cncc(C4CC4)n3)c2cc1-c1nnc(NC2COC2)o1 [Example 251, 5-(3-(6-cyclopropyl-2-pyrazinyl)-1H-indol-5-yl)-N-3-oxetanyl-1,3,4-oxadiazol-2-amine]	107 nM	5.84 nM	3.2 nM	2010 nM				
c1cc(C2CC2)nc(-c2c[nH]c3ccc(-c4nnc(NC5COC5)o4)cc23)n1 [Example 256, 5-(3-(4-cyclopropyl-2-pyrimidinyl)-1H-indol-5-yl)-N-3-oxetanyl-1,3,4-oxadiazol-2-amine]			7.69 nM	734 nM	1.21 nM	68.1 nM		
c1cc(C2CC2)nc(-c2c[nH]c3ccc(-c4nnc(NC5CC5)o4)cc23)n1 [Example 257, N-cyclopropyl-5-(3-(4-cyclopropyl-2-pyrimidinyl)-1H-indol-5-yl)-1,3,4-oxadiazol-2-amine]	100 nM	1.41 nM	1.99 nM	943 nM				
CC(C)Nc1nnc(-c2ccc3[nH]cc(-c4nccc(C(F)(F)F)n4)c3c2)o1 [Example 258, N-(1-methylethyl)-5-(3-(4-(trifluoromethyl)-2-pyrimidinyl)-1H-indol-5-yl)-1,3,4-oxadiazol-2-amine]	229 nM	25.2 nM	13.7 nM	3720 nM				
